A short description of this data set: in vitro. Conditions: human, hela cells, % viability.
What is called viability is a read-out of living cells in per cent, often relative to untreated cells. For `c1ccc(OCCOc2nccnc2-c2cc3ccccc3s2)cc1` [CBK106787], the viability at 28.5 h, 10 µM came out at 92.3%.

Regarding `COc1nccnc1-c1ccc(SC)cc1` [CBK106795], the viability at 28.5 h, 10 µM amounted to 95%.

For the molecule `CSc1ccc(-c2nccnc2OCCN(C(C)C)C(C)C)cc1` [CBK106805], the viability at 28.5 h, 10 µM came out at 107%.

Take `COc1ccccc1-c1nccnc1OC` [CBK106811]: the viability at 28.5 h, 10 µM is 93.7%.

`COc1ccccc1-c1nccnc1OCCn1cnc2c1c(=O)n(C)c(=O)n2C` [CBK106816]: the viability at 28.5 h, 10 µM was determined as 109%.

As for `COc1ccccc1-c1nccnc1OCc1ccccc1` [CBK106817], the viability at 28.5 h, 10 µM worked out at 108%.

On to `COc1ccccc1-c1nccnc1OCCC(C)C` [CBK106818], for which the viability at 28.5 h, 10 µM was 109%.

As for `COc1ccccc1-c1nccnc1OCc1cccs1` [CBK106819], the viability at 28.5 h, 10 µM stood at 88.4%.

As for `COc1ccccc1-c1nccnc1OCCn1cccc1` [CBK106820], the viability at 28.5 h, 10 µM is 91.3%.

For the molecule `COc1ccccc1-c1nccnc1OCc1cccc(OC)c1OC` [CBK106825], the viability at 28.5 h, 10 µM was determined as 81.2%.

As for `COc1ccc(CCOc2nccnc2-c2ccc(OC(F)(F)F)cc2)cc1` [CBK106846], the viability at 28.5 h, 10 µM was found to be 109%.

Take `CC(C)N(CCOc1nccnc1-c1ccc(OC(F)(F)F)cc1)C(C)C` [CBK106848]: the viability at 28.5 h, 10 µM is 89.3%.

For `Cc1ccc(-c2nccnc2OCCc2c[nH]c3ccccc23)cc1C` [CBK106850], the viability at 28.5 h, 10 µM amounted to 96%.

Regarding `Cc1ccc(-c2nccnc2OCCn2cccc2)cc1C` [CBK106864], the viability at 28.5 h, 10 µM was determined as 101%.

In the case of `C(=C\c1nccnc1OCCc1c[nH]c2ccccc12)/c1ccccc1` [CBK106872], the viability at 28.5 h, 10 µM worked out at 91.7%.

As for `C(=C\c1nccnc1OCc1ccccn1)/c1ccccc1` [CBK106874], the viability at 28.5 h, 10 µM is 105%.

Take `O=C1CCCN1CCOc1nccnc1/C=C/c1ccccc1` [CBK106875]: the viability at 28.5 h, 10 µM was found to be 92.4%.

`O=C1NCCN1CCOc1nccnc1/C=C/c1ccccc1` [CBK106879]: the viability at 28.5 h, 10 µM was determined as 96%.

For `CC(=O)Nc1ccc(CCOc2nccnc2/C=C/c2ccccc2)cc1` [CBK106880], the viability at 28.5 h, 10 µM was found to be 94.1%.

Regarding `CC(=O)Nc1cccc(Oc2nccnc2/C=C/c2ccccc2)c1` [CBK106881], the viability at 28.5 h, 10 µM was determined as 91.6%.

Take `C(=C\c1nccnc1OCc1cccs1)/c1ccccc1` [CBK106883]: the viability at 28.5 h, 10 µM came to 112%.

Regarding `C(=C\c1nccnc1OCCn1cccc1)/c1ccccc1` [CBK106884], the viability at 28.5 h, 10 µM was 94%.

Turning to `COc1cccc(COc2nccnc2/C=C/c2ccccc2)c1OC` [CBK106888], the viability at 28.5 h, 10 µM was determined as 89.3%.

Take `CCCCOc1nccnc1/C=C/c1ccccc1` [CBK106890]: the viability at 28.5 h, 10 µM came out at 92%.

Regarding `Fc1ccc(-c2nccnc2OCc2ccccn2)cc1` [CBK106894], the viability at 28.5 h, 10 µM was 99.6%.

With `COc1cccc(Oc2nccnc2-c2ccc(F)cc2)c1` [CBK106897], the viability at 28.5 h, 10 µM amounted to 93.5%.

As for `CC(=O)Nc1cccc(Oc2nccnc2-c2ccc(F)cc2)c1` [CBK106900], the viability at 28.5 h, 10 µM worked out at 37.1%.

Regarding `COCOc1ccc(-c2nccnc2OCCc2cccs2)cc1` [CBK106911], the viability at 28.5 h, 10 µM came to 106%.

As for `COCOc1ccc(-c2nccnc2OCCN2C(=O)c3ccccc3C2=O)cc1` [CBK106913], the viability at 28.5 h, 10 µM was 111%.

For the molecule `COCOc1ccc(-c2nccnc2OC)cc1` [CBK106914], the viability at 28.5 h, 10 µM stood at 111%.

Consider `COCOc1ccc(-c2nccnc2OC2CCCCC2)cc1` [CBK106917], for which the viability at 28.5 h, 10 µM was 94.3%.

As for `COCc1cccc(-c2nccnc2OC)c1` [CBK106956], the viability at 28.5 h, 10 µM came to 95.2%.

With `COCc1cccc(-c2nccnc2Oc2cccc(OC)c2)c1` [CBK106958], the viability at 28.5 h, 10 µM is 90.6%.

On to `COCc1cccc(-c2nccnc2OC2CCCCC2)c1` [CBK106959], for which the viability at 28.5 h, 10 µM came out at 87.5%.

Regarding `COCc1cccc(-c2nccnc2OC(c2ccccc2)c2ccccc2)c1` [CBK106960], the viability at 28.5 h, 10 µM is 101%.

With `Cc1ccc(-c2nccnc2OCCN2C(=O)c3ccccc3C2=O)c(C)c1` [CBK106981], the viability at 28.5 h, 10 µM was 90%.

Regarding `Cc1ccc(-c2nccnc2OCc2ccc3c(c2)OCO3)c(C)c1` [CBK106982], the viability at 28.5 h, 10 µM amounted to 93.1%.

For the molecule `CC(=O)Nc1cccc(Oc2nccnc2-c2ccc(C)cc2C)c1` [CBK106986], the viability at 28.5 h, 10 µM amounted to 95.3%.

For the molecule `Cc1ccc(-c2nccnc2OCCC(C)C)c(C)c1` [CBK106988], the viability at 28.5 h, 10 µM came out at 102%.

As for `COc1cccc(COc2nccnc2-c2ccc(C)cc2C)c1OC` [CBK106995], the viability at 28.5 h, 10 µM worked out at 93.2%.

`c1csc(-c2nccnc2OC2CCCCC2)c1` [CBK107060]: the viability at 28.5 h, 10 µM stood at 90.2%.

On to `c1ccc(C(Oc2nccnc2-c2cccs2)c2ccccc2)cc1` [CBK107061], for which the viability at 28.5 h, 10 µM is 112%.

With `c1csc(-c2nccnc2OCC2COc3ccccc3O2)c1` (centres unmarked) [CBK107063], the viability at 28.5 h, 10 µM came out at 101%.

Take `Cn1cc(-c2nccnc2OCCc2cccs2)cn1` [CBK107066]: the viability at 28.5 h, 10 µM worked out at 95%.

In the case of `Cn1cc(-c2nccnc2OCCN2CCCC2=O)cn1` [CBK107068], the viability at 28.5 h, 10 µM is 106%.

In the case of `Cn1cc(-c2nccnc2OC(c2ccccc2)c2ccccc2)cn1` [CBK107073], the viability at 28.5 h, 10 µM is 103%.

Turning to `CC(C)N(CCOc1nccnc1-c1cnn(C)c1)C(C)C` [CBK107084], the viability at 28.5 h, 10 µM worked out at 103%.

Turning to `CCCCOc1nccnc1-c1cnn(C)c1` [CBK107085], the viability at 28.5 h, 10 µM amounted to 92.8%.

With `c1ccc(Cn2cc(-c3nccnc3OCc3ccccn3)cn2)cc1` [CBK107088], the viability at 28.5 h, 10 µM is 98.9%.

In the case of `c1ccc(Cn2cc(-c3nccnc3OC(c3ccccc3)c3ccccc3)cn2)cc1` [CBK107093], the viability at 28.5 h, 10 µM was 88.2%.

`O=C1NCCN1CCOc1nccnc1-c1cnn(Cc2ccccc2)c1` [CBK107094]: the viability at 28.5 h, 10 µM was 86.3%.

As for `CC(=O)Nc1cccc(Oc2nccnc2-c2cnn(Cc3ccccc3)c2)c1` [CBK107096], the viability at 28.5 h, 10 µM was found to be 101%.

`COc1nccnc1-c1ccc(Cl)c(Cl)c1` [CBK107110]: the viability at 28.5 h, 10 µM was 98.7%.

As for `CN1CCCN(C(=O)c2ccc(-c3nc(-c4ccc(C#N)cc4)cnc3N)cc2)CC1` [CBK107140], the viability at 28.5 h, 10 µM turned out to be 93.9%.

For `Cc1ccccc1NC(=O)c1ccc(Br)o1` [CBK107152], the viability at 28.5 h, 10 µM came out at 88.2%.

As for `CC(C)Nc1cc(SC2CCCCC2)ncn1` [CBK107163], the viability at 28.5 h, 10 µM amounted to 92.4%.

As for `CNC(=O)CSc1nc2ccccc2nc1NC(C)C` [CBK107171], the viability at 28.5 h, 10 µM is 99.7%.

`CCOC(=O)CSc1nc2cc(Cl)c(Cl)cc2nc1NC(C)C` [CBK107173]: the viability at 28.5 h, 10 µM is 97.1%.

Regarding `FC(F)(F)c1cccc(CSc2nccnc2N2CCCC2)c1` [CBK107178], the viability at 28.5 h, 10 µM turned out to be 94.7%.

`FC(F)(F)c1cccc(CSc2nc3ccccc3nc2N2CCCC2)c1` [CBK107190]: the viability at 28.5 h, 10 µM was 91.5%.

On to `FC(F)(F)c1cccc(SCc2ccc(Cl)cc2)n1` [CBK107197], for which the viability at 28.5 h, 10 µM was determined as 91.9%.

On to `Fc1ccc(CSc2nc3ccccc3nc2C(F)(F)F)cc1` [CBK107199], for which the viability at 28.5 h, 10 µM was 98.6%.

`CCOC(=O)CSc1nc2ccccc2nc1C(F)(F)F` [CBK107200]: the viability at 28.5 h, 10 µM amounted to 92.8%.

Regarding `FC(F)(F)c1nc2ccccc2nc1SCc1ccco1` [CBK107201], the viability at 28.5 h, 10 µM was 85.9%.

In the case of `FC(F)(F)c1nc2ccccc2nc1SCCc1ccccc1` [CBK107204], the viability at 28.5 h, 10 µM stood at 90.3%.

Consider `Cc1ccccc1S(=O)(=O)Nc1cc(CN2C[C@H](C)NC[C@H]2C)c2occc2c1` [CBK107210T], for which the viability at 28.5 h, 10 µM was determined as 108%.

For `O=C(NCc1ccccn1)c1ccccc1Nc1cccc(C(F)(F)F)c1` [CBK107252], the viability at 28.5 h, 10 µM came to 86.3%.

As for `O=C(NCCN1CCCC1)c1cc2cc(Cl)ccc2[nH]1` [CBK107267], the viability at 28.5 h, 10 µM is 88%.

For the molecule `O=C(Nc1cccnc1)c1cc2cc(F)ccc2[nH]1` [CBK107272], the viability at 28.5 h, 10 µM came out at 93.2%.

As for `O=C(NCc1ccccn1)c1cc2cc(F)ccc2[nH]1` [CBK107276], the viability at 28.5 h, 10 µM was found to be 102%.

For the molecule `O=C(c1cc2cc(F)ccc2[nH]1)N1CCN(c2ncccn2)CC1` [CBK107280], the viability at 28.5 h, 10 µM is 91.8%.

With `CC(C)(C)c1cc(C(=O)Nc2ccncc2)n(Cc2ccc(Cl)cc2Cl)n1` [CBK107284], the viability at 28.5 h, 10 µM worked out at 107%.

Regarding `CC(C)(C)c1cc(C(=O)N2CCN(c3ncccn3)CC2)n(Cc2ccc(Cl)cc2Cl)n1` [CBK107294], the viability at 28.5 h, 10 µM worked out at 105%.

As for `O=C(Cc1csc(-c2ccc(Cl)cc2)n1)Nc1cccnc1` [CBK107300], the viability at 28.5 h, 10 µM was found to be 101%.

On to `O=C(Nc1cccnc1)c1cc2cc(OC(F)(F)F)ccc2[nH]1` [CBK107313], for which the viability at 28.5 h, 10 µM came to 95.1%.

Consider `O=C(Nc1ccncc1)c1cc2cc(Cl)ccc2[nH]1` [CBK107340], for which the viability at 28.5 h, 10 µM turned out to be 95%.

In the case of `O=C(c1cc2cc(Cl)ccc2[nH]1)N1CCN(c2ccccn2)CC1` [CBK107343], the viability at 28.5 h, 10 µM was determined as 93.7%.

Turning to `NCCNC(=O)c1cc2cc(F)ccc2[nH]1` [CBK107345], the viability at 28.5 h, 10 µM came to 95.8%.

`O=C(Nc1ccncc1)c1cc2cc(F)ccc2[nH]1` [CBK107346]: the viability at 28.5 h, 10 µM worked out at 103%.

Regarding `CN(C)CCCNC(=O)c1cnc2cc(Cl)ccc2c1O` [CBK107354], the viability at 28.5 h, 10 µM is 94.4%.

Consider `O=C(c1cnc2cc(Cl)ccc2c1O)N1CCN(c2ncccn2)CC1` [CBK107358], for which the viability at 28.5 h, 10 µM came out at 108%.

For `CC(C)(C)c1cc(C(=O)Nc2ccccn2)n(Cc2ccc(Cl)cc2Cl)n1` [CBK107361], the viability at 28.5 h, 10 µM was determined as 89.6%.

With `O=C(Cc1csc(-c2ccc(Cl)cc2)n1)Nc1ccccn1` [CBK107364], the viability at 28.5 h, 10 µM came to 85.8%.

Consider `CCCc1c(C(=O)NCCCN(C)C)cnn1-c1cc(Cl)cc(Cl)c1` [CBK107376], for which the viability at 28.5 h, 10 µM turned out to be 89.3%.

Take `CCCc1c(C(=O)N2CCN(c3ncccn3)CC2)cnn1-c1cc(Cl)cc(Cl)c1` [CBK107383]: the viability at 28.5 h, 10 µM is 102%.

With `Cc1c(C(=O)Nc2cccnc2)nnn1-c1cccc(C(F)(F)F)c1` [CBK107389], the viability at 28.5 h, 10 µM was determined as 97.1%.

Values taken from publication PMC12040169 (PLOS Biology, 2025).
